Results taken from US20160257697A1, “THIOPHENE-SUBSTITUTED TETRACYCLIC COMPOUNDS AND METHODS OFUSE THEREOF FOR THE TREATMENT OF VIRAL DISEASES” (priority 2013, published 2016).
Like-named read-outs stand apart in the source and are kept apart here.

What was measured:
Assay in all cases: microbe, parasite or virus in culture
Type in all cases: cell-based, Hepatitis C virus (HCV)
[1] = system: HCV replicon 1AY93H; settings: Replicon Assay A
Outline: (§1)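 Replicon cells incubated with compound for 3 days in medium with 5% FBS and 0.5% DMSO final. Replicon RNA measured in lysates by multiplex real-time RT-PCR (Neo set) against cyclophilin control, quantified from standard curves of Ct versus log ng replicon total RNA.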

[2] = system: HCV replicon 1A; settings: Replicon Assay A
Outline: as §1

[3] = system: HCV replicon 2B; settings: Replicon Assay A
Outline: as §1

[4] = system: HCV replicon 1AQ30D; settings: Replicon Assay B
[5] = system: HCV replicon 1B; settings: Replicon Assay B
[6] = read-out: 1A Y93H IC50, replicon 1AY93H
[7] = read-out: 1A Q30D IC50, replicon 1AQ30D
[8] = read-out: 1A Y93H IC50, HCV replicon 1A Y93H
[9] = Hepatitis C virus, HCV replicon 1A
[10] = read-out: 2B IC50, HCV replicon 2B
[11] = Hepatitis C virus, read-out: 1A Q30D IC50, HCV replicon 1A Q30D
[12] = Hepatitis C virus, HCV replicon 1B
[13] = Hepatitis C virus, read-out: 1A Y93H IC50, HCV replicon 1A Y93H
[14] = Hepatitis C virus, read-out: 2B IC50, HCV replicon 2B
[15] = Hepatitis C virus, read-out: 1A Y93H IC50 (nM), replicon 1AY93H
[16] = Hepatitis C virus, read-out: 2B IC50 (nM), replicon 2B
[17] = Hepatitis C virus, read-out: 1A Q30D IC50 (nM), replicon 1AQ30D
[18] = HCV replicon 1A Y93H, read-out: 1A Y93H IC50
[19] = HCV replicon 2B, read-out: 2B IC50
[20] = HCV replicon 1A Q30D, read-out: 1A Q30D IC50
[21] = read-out: 1A Q30D IC50, HCV replicon 1A Q30D

COC(=O)N[C@H](C(=O)N1CCC[C@@H]1c1ncc(-c2cc(F)c3c(c2)OC(c2ccc(C(C)C)s2)n2c-3cc3cc(-c4c[nH]c([C@@H]5CCCN5C(=O)[C@H](NC(=O)OC)C5C[C@@H](C)O[C@@H](C)C5)n4)ccc32)[nH]1)C(C)C (stereo partly shown) [Compound 240]
IC50 [1, 6]: 0.005 nM
IC50 ([2]; replicon 1A): 2.1 pM
IC50 ([3]; read-out: 2B IC50, replicon 2B): 0.011 nM
IC50 [4, 7]: 0.062 nM
IC50 ([5]; replicon 1B): 2.7 pM

COC(=O)NC(C(=O)N1CCC[C@H]1c1ncc(-c2ccc3c(c2)cc2n3C(c3cc4ccccc4s3)Oc3cc(-c4cnc([C@@H]5CCCN5C(=O)[C@@H](NC(=O)OC)C(C)C)[nH]4)cc(F)c3-2)[nH]1)C1C[C@@H](C)O[C@@H](C)C1 (single isomer, unassigned) [Compound 640]
IC50 [1, 8]: 0.0106 nM
IC50 [2, 9]: 1.9 pM
IC50 [3, 10]: 0.0253 nM
IC50 [4, 11]: 0.271 nM
IC50 [5, 12]: 1.1 pM

COC(=O)NC(C(=O)N1CCC[C@H]1c1ncc(-c2ccc3c(c2)cc2n3C(c3ccc(C4CC4)s3)Oc3cc(-c4cnc([C@@H]5CCCN5C(=O)[C@@H](NC(=O)OC)C(C)C)[nH]4)cc(F)c3-2)[nH]1)C1CCO[C@H](C)C1 (single isomer, unassigned) [Compound 138]
IC50 [1, 6]: 0.019 nM
IC50 ([2]; replicon 1A): 1.3 pM
IC50 ([3]; read-out: 2B IC50, replicon 2B): 0.061 nM
IC50 [4, 7]: 0.67 nM
IC50 ([5]; replicon 1B): 1.4 pM

COC(=O)N[C@H](C(=O)N1CCC[C@H]1c1ncc(-c2cc(F)c3c(c2)OC(c2cc4c(s2)CCC4)n2c-3cc3cc(-c4cnc([C@@H]5CCCN5C(=O)[C@@H](NC(=O)OC)C5CCOCC5)[nH]4)ccc32)[nH]1)C(C)C (single isomer, unassigned) [Compound 620]
IC50 [1, 8]: 0.0059 nM
IC50 [2, 9]: 2.3 pM
IC50 [3, 10]: 0.0102 nM
IC50 [4, 11]: 0.114 nM
IC50 [5, 12]: 1.9 pM

CCc1ccc(C2Oc3cc(-c4cnc([C@@H]5CCCN5C(=O)C(NC(=O)OC)C5CCOC(C)(C)C5)[nH]4)cc(F)c3-c3cc4cc(-c5cnc([C@@H]6CCCN6C(=O)C(NC(=O)OC)C6CCOC(C)(C)C6)[nH]5)ccc4n32)s1 (single isomer, unassigned) [Compound 295]
IC50 [1, 6]: 0.005 nM
IC50 ([2]; replicon 1A): 3.2 pM
IC50 ([3]; read-out: 2B IC50, replicon 2B): 0.004 nM
IC50 [4, 7]: 0.017 nM
IC50 ([5]; replicon 1B): 2.8 pM

CCc1ccc(C2Oc3cc(-c4cnc([C@@H]5CCCN5C(=O)[C@@H](NC(=O)OC)C(C)C)[nH]4)cc(C)c3-c3cc4cc(-c5cnc([C@@H]6CCCN6C(=O)[C@@H](NC(=O)OC)C6CCOC(C)(C)C6)[nH]5)ccc4n32)s1 (single isomer, unassigned) [Compound 547]
IC50 [1, 13]: 0.13 nM
IC50 [2, 9]: 7 pM
IC50 [3, 14]: 0.012 nM
IC50 [4, 11]: 0.96 nM
IC50 [5, 12]: 7 pM

CCc1ccc(C2Oc3cc(-c4cnc([C@@H]5CCCN5C(=O)C(NC(=O)OC)C5CCOC(C)(C)C5)[nH]4)cc(F)c3-c3cc4cc(-c5cnc([C@@H]6CCCN6C(=O)[C@@H](NC(=O)OC)C(C)C)[nH]5)ccc4n32)s1 (single isomer, unassigned) [Compound 162]
IC50 [1, 6]: 0.004 nM
IC50 ([2]; replicon 1A): 2.2 pM
IC50 ([3]; read-out: 2B IC50, replicon 2B): 0.006 nM
IC50 [4, 7]: 0.027 nM
IC50 ([5]; replicon 1B): 1.9 pM

COC(=O)N[C@H](C(=O)N1CCC[C@@H]1c1ncc(-c2cc(F)c3c(c2)OC(c2ccc(C(C)C)s2)n2c-3cc3cc(-c4c[nH]c([C@@H]5C[C@@H]6C[C@@H]6N5C(=O)[C@H](NC(=O)OC)C5C[C@@H](C)O[C@@H](C)C5)n4)ccc32)[nH]1)C(C)C (stereo partly shown) [Compound 284]
IC50 [1, 15]: 0.002 nM
IC50 ([2]; Hepatitis C virus, replicon 1A): 1.8 pM
IC50 [3, 16]: 0.024 nM
IC50 [4, 17]: 0.021 nM
IC50 ([5]; Hepatitis C virus, replicon 1B): 2.1 pM

CCc1ccc(C2Oc3cc(-c4cnc([C@@H]5CCCN5C(=O)[C@@H](NC(=O)OC)C(C)C)[nH]4)cc(F)c3-c3cc4cc(-c5cnc([C@@H]6CCCN6C(=O)[C@@H](NC(=O)OC)C(C)C)[nH]5)ccc4n32)s1 (stereo partly shown) [Compound 4]
IC50 [1, 15]: 0.01 nM
IC50 ([2]; Hepatitis C virus, replicon 1A): 2.2 pM
IC50 [3, 16]: 0.055 nM
IC50 [4, 17]: 0.347 nM
IC50 ([5]; Hepatitis C virus, replicon 1B): 2 pM

COC(=O)NC(C(=O)N1CCC[C@H]1c1ncc(-c2cc(F)c3c(c2)OC(c2ccc(C)s2)n2c-3cc3cc(-c4cnc([C@@H]5CCCN5C(=O)[C@@H](NC(=O)OC)C5CCOCC5)[nH]4)ccc32)[nH]1)C(C)(C)F (single isomer, unassigned) [Compound 108]
IC50 [1, 6]: 0.25 nM
IC50 ([2]; replicon 1A): 2.6 pM
IC50 ([3]; read-out: 2B IC50, replicon 2B): 0.29 nM
IC50 [4, 7]: 1.15 nM
IC50 ([5]; replicon 1B): 2.7 pM

COC(=O)N[C@H](C(=O)N1CCC[C@H]1c1ncc(-c2cc(F)c3c(c2)OC(c2ccc(C#CC4CC4)s2)n2c-3cc3cc(-c4cnc([C@@H]5CCCN5C(=O)[C@@H](NC(=O)OC)C(C)C)[nH]4)ccc32)[nH]1)C(C)C (single isomer, unassigned) [Compound 86]
IC50 [1, 6]: 0.003 nM
IC50 ([2]; replicon 1A): 1.6 pM
IC50 ([3]; read-out: 2B IC50, replicon 2B): 0.033 nM
IC50 [4, 17]: 0.11 nM
IC50 ([5]; Hepatitis C virus, replicon 1B): 1.6 pM

CCCc1ccc(C2Oc3cc(-c4cnc([C@@H]5CCCN5C(=O)[C@@H](NC(=O)OC)C(C)C)[nH]4)cc(F)c3-c3cc4cc(-c5cnc([C@@H]6CCCN6C(=O)C(NC(=O)OC)C6C[C@@H](C)O[C@@H](C)C6)[nH]5)ccc4n32)s1 (single isomer, unassigned) [Compound 369]
IC50 [1, 6]: 0.0739 nM
IC50 ([2]; Hepatitis C virus, replicon 1A): 1 pM
IC50 ([3]; read-out: 2B IC50, replicon 2B): 0.115 nM
IC50 [4, 7]: 0.912 nM
IC50 ([5]; Hepatitis C virus, replicon 1B): 1.8 pM

COC(=O)NC(C(=O)N1CCCC1c1ncc(-c2cc(F)c3c(c2)OC(c2cc4c(s2)CC(C)(C)C4)n2c-3cc3cc(-c4cnc(C5CCCN5C(=O)C(NC(=O)OC)C(C)C)[nH]4)ccc32)[nH]1)C(C)C (mixture of isomers) [Compound 846]
IC50 [1, 18]: 0.034 nM
IC50 ([2]; HCV replicon 1A): 2.9 pM
IC50 [3, 19]: 0.039 nM
IC50 [4, 20]: 0.302 nM
IC50 ([5]; HCV replicon 1B): 2.8 pM

COC(=O)N[C@H](C(=O)N1CCC[C@H]1c1ncc(-c2cc(C)c3c(c2)OC(c2ccc(C4CC4)s2)n2c-3cc3cc(-c4cnc([C@@H]5CCCN5C(=O)[C@@H](NC(=O)OC)C(C)C)[nH]4)ccc32)[nH]1)C(C)C (single isomer, unassigned) [Compound 751]
IC50 [1, 8]: 0.51 nM
IC50 ([2]; HCV replicon 1A): 3.3 pM
IC50 [3, 10]: 0.027 nM
IC50 [4, 11]: 0.996 nM
IC50 ([5]; HCV replicon 1B): 29 pM

COC(=O)N[C@H](C(=O)N1CCC[C@H]1c1ncc(-c2cc(F)c3c(c2)OC(c2ccc(CC(C)(C)OC)s2)n2c-3cc3cc(-c4cnc([C@@H]5CCCN5C(=O)[C@@H](NC(=O)OC)C(C)C)[nH]4)ccc32)[nH]1)C(C)C (single isomer, unassigned) [Compound 844]
IC50 [1, 18]: 0.023 nM
IC50 ([2]; HCV replicon 1A): 2.2 pM
IC50 [3, 19]: 0.213 nM
IC50 [4, 20]: 0.239 nM
IC50 ([5]; HCV replicon 1B): 2.6 pM

COC(=O)N[C@H](C(=O)N1CCC[C@H]1c1ncc(-c2ccc3c(c2)OC(c2ccc(C4CC4)s2)n2c-3c(F)c3cc(-c4cnc([C@@H]5C[C@H]6C[C@H]6N5C(=O)[C@@H](NC(=O)OC)C5C[C@@H](C)O[C@@H](C)C5)[nH]4)ccc32)[nH]1)C(C)C (single isomer, unassigned) [Compound 406]
IC50 [1, 13]: 0.0041 nM
IC50 [2, 9]: 2.3 pM
IC50 [3, 14]: 0.0161 nM
IC50 [4, 11]: 0.0824 nM
IC50 [5, 12]: 2.8 pM

COC(=O)N[C@H](C(=O)N1CCC[C@H]1c1ncc(-c2cc(C)c3c(c2)OC(c2ccc(C4CC4)s2)n2c-3cc3cc(-c4cnc([C@@H]5C[C@H]6C[C@H]6N5C(=O)[C@@H](NC(=O)OC)C5CCOCC5)[nH]4)ccc32)[nH]1)C(C)C (single isomer, unassigned) [Compound 762]
IC50 [1, 8]: 0.005 nM
IC50 [2, 9]: 2 pM
IC50 [3, 10]: 0.0048 nM
IC50 [4, 21]: 0.025 nM
IC50 [5, 12]: 3 pM

CCCc1ccc(C2Oc3cc(-c4cnc([C@@H]5CCCN5C(=O)[C@@H](NC(=O)OC)C(C)C)[nH]4)cc(F)c3-c3cc4cc(-c5cnc([C@@H]6CCCN6C(=O)C(NC(=O)OC)C6C[C@@H](C)O[C@@H](C)C6)[nH]5)ccc4n32)s1 (single isomer, unassigned) [Compound 370]
IC50 [1, 6]: 0.0022 nM
IC50 ([2]; replicon 1A): 1.4 pM
IC50 ([3]; read-out: 2B IC50, replicon 2B): 0.0066 nM
IC50 [4, 7]: 0.0454 nM
IC50 ([5]; replicon 1B): 2 pM

COC(=O)NC(C(=O)N1[C@@H]2C[C@@H]2C[C@H]1c1ncc(-c2ccc3c(c2)cc2n3C(c3ccc(C4CC4)s3)Oc3cc(-c4cnc([C@@H]5CCCN5C(=O)[C@@H](NC(=O)OC)C(C)C)[nH]4)cc(F)c3-2)[nH]1)C1C[C@@H](C)O[C@@H](C)C1 (single isomer, unassigned) [Compound 271]
IC50 [1, 6]: 0.004 nM
IC50 ([2]; replicon 1A): 3.4 pM
IC50 ([3]; read-out: 2B IC50, replicon 2B): 0.013 nM
IC50 [4, 7]: 0.036 nM
IC50 ([5]; Hepatitis C virus, replicon 1B): 2.2 pM

COC(=O)NC(C(=O)N1CCC[C@H]1c1ncc(-c2ccc3c(c2)cc2n3C(c3ccc(CC4CC4)s3)Oc3cc(-c4cnc([C@@H]5CCCN5C(=O)[C@@H](NC(=O)OC)C(C)C)[nH]4)cc(F)c3-2)[nH]1)C1CCOC(C)(C)C1 (single isomer, unassigned) [Compound 408]
IC50 [1, 8]: 0.004 nM
IC50 ([2]; HCV replicon 1A): 3.5 pM
IC50 [3, 10]: 0.005 nM
IC50 [4, 21]: 0.0261 nM
IC50 ([5]; HCV replicon 1B): 1.9 pM
